Patent US20160257651A1, “NOVEL COMPOUND WITH ANTIBACTERIAL ACTIVITY” (priority 2013, published 2016)
Values after ≈ are worked out from the molar mass of the structure shown. Values joined by “and” are separate entries in the source; they are usually repeats but may differ in a detail not shown here. Equal values may be shown once.

Key:
E. coli strain 1708 = experiment: Antibacterial activity against Escherichia coli
Text: (§3) The numerical values in the tables indicate MIC (mg/L), Res means resistant bacterium, and Sus means susceptible bacterium.
(§4) Antibacterial activities against Escherichia coli of the compounds shown Table 19 were examined by the following method.
(§5) After completion of the culture, the cells were suspended in fresh TBS to prepare a cell suspension showing an absorbance of 0.3 at 578 nm.

[1] = test system: E. coli strain 1708 plus PABN; experiment: Antibacterial activity against Escherichia coli in combination with efflux pump inhibitor PAβN; details: E coli plus PABN 40 mg/L, strain 1708, Quinolone Res
Text: as §3, §4, §5

GyrA (S84L) + GyrB (wt) = molecular target: T1, GyrA (S84L) + GyrB (wt) (Staphylococcus aureus, UniProt P20831, S84L); experiment: DNA cleavage assay using DNA gyrase; type: biochemical
T1 construct: made in house; host or cells: E. coli BL21(DE3)
Protocol: (§1) To the culture medium of the resulting transformed Escherichia coli 1 mM isopropyl-8-thiogalactopyranoside (produced by Wako Pure Chemical Industries) was added to induce expression of maltose-binding GyrA(wt), maltose-binding GyrB(wt), or maltose-binding mutant GyrA(S84L), and the bacterium was cultured overnight at 25° C.
Then, each disrupted cell suspension was added to a column filled with an amylose resin covalently bound with maltose (produced by Novagen). A buffer (20 mM Tris-HCl (pH 8.0), 200 mM sodium chloride, 1 mM EDTA) containing 10 mM maltose was added to the column to elute the maltose-binding GyrA(wt), maltose-binding GyrB(wt), and maltose-binding mutant GyrA(S84L). […]
(§2) Then, the total value of the intensities of the bands of “S”, “L”, and “N” was calculated for each concentration, and the result was used as “total DNA amount” (equation 1 mentioned below). Further, the total value of the intensities of the bands of “L” and “N” was also calculated, and the result was used as “amount of cleaved DNA” (equation 2 mentioned below). Then, the ratio (%) of the amount of the substrate plasmid DNA to the total DNA amount was calculated in accordance with the following equation 3, and the ratio (%) of the amount of the cleaved DNA to the total DNA amount was calculated in accordance with the following equation 4.

GyrA (wt) + GyrB (wt) = molecular target: T2, GyrA (wt) + GyrB (wt) (Staphylococcus aureus, UniProt P20831); experiment: DNA cleavage assay using DNA gyrase; type: biochemical; details: for Ratio of cleaved DNA (%) / Ratio of substrate plasmid DNA (%): GyrA (wt) + GyrB (wt)
T2 construct: made in house; host or cells: E. coli BL21(DE3)
Protocol: as §1
Then, each disrupted cell suspension was added to a column filled with an amylose resin covalently bound with maltose (produced by Novagen). A buffer (20 mM Tris-HCl (pH 8.0), 200 mM sodium chloride, 1 mM EDTA) containing 10 mM maltose was added to the column to elute the maltose-binding GyrA(wt), maltose-binding GyrB(wt), and maltose-binding mutant GyrA(S84L).
To each eluate, 4 units/1 mL of the eluate of protease (Factor Xa, produced by Amersham) was added, and the mixture was left standing at 25° C. for 3 hours and 30 minutes to cleave the maltose-binding proteins, GyrA(wt), GyrB(wt), and mutant GyrA(S84L), from the maltose-binding GyrA(wt), maltose-binding GyrB(wt), and maltose-binding mutant GyrA(S84L).
Then, GyrA(wt), GyrB(wt), and mutant GyrA(S84L) were concentrated by using an ultrafiltration unit (YM-50 Filter Unit, produced by Millipore).
The concentrated GyrA(wt), GyrB(wt), and mutant GyrA(S84L) were each suspended in a buffer (35 mM Tris-HCl (pH 7.5), 24 mM potassium chloride, 6 mM magnesium chloride, 1.8 mM spermidine, 0.36 mg/mL bovine serum albumin, 5 mM DTT, 50 volume % glycerol) at a concentration of 1 μg/μL for GyrA(wt), 2 μg/μL for GyrB(wt), or 1 μg/μL for mutant GyrA(S84L).
Levofloxacin was added at a final concentration of […] as control for an index of the enzymatic activity.
The reaction solution was left standing at 25° C. for 30 minutes to allow the reaction. Subsequently, a 6 mass % solution of sodium laurylsulfate (2 μL) and a 5 mg/mL solution of Proteinase K (2 μL, produced by Wako Pure Chemical Industries) were added to the reaction solution, and the mixture was left standing at 37° C. for 30 minutes to inactivate GyrA(wt) and GyrB(wt) bound to DNA.
Then, the whole volume of the reaction solution treated with Proteinase K was subjected to electrophoresis on 1 mass % agarose gel to visualize the resultants of the reaction.
as §2
The DNA cleavage assay is a method for evaluating an inhibitory action of an agent for DNA gyrase by detecting whether or not DNAs cleaved by DNA gyrase are recombined.

E. coli strain 1709 = experiment: Antibacterial activity against Escherichia coli
Text: as §3, §4, §5

[2] = test system: E. coli strain 1709 plus PABN; experiment: Antibacterial activity against Escherichia coli in combination with efflux pump inhibitor PAβN; details: E coli plus PABN 40 mg/L, strain 1709, Quinolone Sus
Text: as §3, §4, §5

## O=c1cc(CO)c2cc(F)c(-c3ccc(O)cc3)cc2n1C1CC1 [J-131CP, 1-cyclopropyl-6-fluoro-4-(hydroxymethyl)-7-(4-hydroxyphenyl)-1,2-dihydroquinolin-2-one]
E. coli strain 1708
  MIC: 128 µg/mL (≈ 393 µM)
[1]
  MIC: 0.25 µg/mL
GyrA (S84L) + GyrB (wt); IC50, GyrA (S84L) + GyrB (wt), calculated from the ratio of cleaved DNA
  IC50: 3.07 µM
GyrA (S84L) + GyrB (wt); IC50, GyrA(S84L) and GyrB(wt)
  IC50: 3.1 µM
GyrA (wt) + GyrB (wt); concentration 0.125 μg/mL
  Ratio of cleaved DNA (%): 12%
  Ratio of substrate plasmid DNA (%): 88%
GyrA (wt) + GyrB (wt); concentration 0.25 μg/mL
  Ratio of cleaved DNA (%): 19%
  Ratio of substrate plasmid DNA (%): 81%
GyrA (wt) + GyrB (wt); concentration 0.5 μg/mL
  Ratio of cleaved DNA (%): 23%
  Ratio of substrate plasmid DNA (%): 77%
GyrA (wt) + GyrB (wt); concentration 1 μg/mL
  Ratio of cleaved DNA (%): 47%
  Ratio of substrate plasmid DNA (%): 53%
GyrA (wt) + GyrB (wt); concentration 2 μg/mL
  Ratio of cleaved DNA (%): 77%
  Ratio of substrate plasmid DNA (%): 23%
GyrA (wt) + GyrB (wt); concentration 4 μg/mL
  Ratio of cleaved DNA (%): 81%
  Ratio of substrate plasmid DNA (%): 19%
GyrA (wt) + GyrB (wt); IC50, GyrA(wt) and GyrB(wt)
  IC50: 6.15 µM and 6.2 µM
E. coli strain 1709
  MIC: 8 µg/mL (≈ 24.6 µM)
[2]
  MIC: ≦0.06 mg/L

## C[C@H]1COc2c(N3CCN(C)CC3)c(F)cc3c(=O)c(C(=O)O)cn1c23 [LVX, levofloxacin]
GyrA (wt) + GyrB (wt); concentration 16 μg/mL
  Ratio of cleaved DNA (%): 78%
  Ratio of substrate plasmid DNA (%): 22%
